Test results taken from the NIST ThermoML archive (doi:10.1021/je0504156).

What was measured:
[1] = 101 kPa, Liquid
[2] = xn = mol fraction of the nth substance listed; details: 101 kPa, Liquid

OCCO [1,2-ethanediol]
[1]
Details	mass density [kg/m3]	viscosity [mPa·s]
308.15 K	1101.88	11.19
313.15 K	1098.33	9.444
318.15 K	1094.75	7.972
323.15 K	1091.16	6.794
333.15 K	1083.94	5.065
343.15 K	1074.53	3.879
353.15 K	1069.72	3.058

OCCO [1,2-ethanediol] + Cc1cccc(O)c1
[2], x2 = 0
Details	mass density [kg/m3]	viscosity [mPa·s]
308.15 K	1101.88	11.19
313.15 K	1098.33	9.444
318.15 K	1094.75	7.972
323.15 K	1091.16	6.794
333.15 K	1083.94	5.065
343.15 K	1074.53	3.879
353.15 K	1069.72	3.058

Cc1cccc(O)c1 [3-methylphenol]
[1]
Details	mass density [kg/m3]	viscosity [mPa·s]
308.15 K	1021.64	7.701
313.15 K	1017.63	6.12
318.15 K	1013.6	5.022
323.15 K	1009.56	4.158
328.15 K	1005.93	3.518
333.15 K	1001.44	2.98
343.15 K	991.33	2.231
353.15 K	985.42	1.759

Cc1cccc(O)c1 [3-methylphenol] + CO
[2]
Details	mass density, 308.15 K [kg/m3]	mass density, 313.15 K [kg/m3]	mass density, 318.15 K [kg/m3]	mass density, 323.15 K [kg/m3]	mass density, 328.15 K [kg/m3]	viscosity, 308.15 K [mPa·s]	viscosity, 313.15 K [mPa·s]	viscosity, 318.15 K [mPa·s]	viscosity, 323.15 K [mPa·s]	viscosity, 328.15 K [mPa·s]
x1 = 0.0999	838.66	834.09	829.48	824.84	820.44	0.725	0.676	0.621	0.588	0.533
x1 = 0.1999	880.62	876.22	871.78	867.32	863.14	0.976	0.906	0.835	0.783	0.72
x1 = 0.2998	914.11	909.92	905.55	901.14	897.17	1.319	1.205	1.1	1.011	0.933
x1 = 0.3999	939.8	935.58	931.38	927.14	923.28	1.778	1.577	1.419	1.29	1.18
x1 = 0.4998	960.97	956.82	952.74	948.57	944.75	2.367	2.079	1.835	1.646	1.459
x1 = 0.6001	977.35	973.31	969.31	965.28	961.59	2.958	2.556	2.243	1.99	1.788
x1 = 0.6998	991.84	987.87	983.92	979.59	976.07	3.767	3.228	2.789	2.437	2.144
x1 = 0.7999	1002.99	998.97	994.93	990.88	987.18	4.783	4.007	3.418	2.936	2.551
x1 = 0.8999	1013.19	1009.18	1005.13	1001.1	997.41	6.06	4.978	4.153	3.507	2.995
x1 = 1	1021.64	1017.63	1013.6	1009.56	1005.93	7.701	6.12	5.022	4.158	3.518

CO [methanol]
[1]
Details	mass density [kg/m3]	viscosity [mPa·s]
308.15 K	776.92	0.476
313.15 K	772.13	0.445
318.15 K	767.31	0.421
323.15 K	762.46	0.395
328.15 K	757.85	0.372

CO [methanol] + Cc1cccc(O)c1
[2], x2 = 0
Details	mass density [kg/m3]	viscosity [mPa·s]
308.15 K	776.92	0.476
313.15 K	772.13	0.445
318.15 K	767.31	0.421
323.15 K	762.46	0.395
328.15 K	757.85	0.372
